Results taken from US12252701B2, “Chimeric antigen receptor T cell therapy” (KITE PHARMA, INC., priority 2020, dated 2025).
Where two headings read alike, the source gives them in different places.

Columns and labels:
[1] = Clinical pharmacokinetic data converted to in vitro concentrations; settings: human, in vivo
Excerpt: Given the different potencies of the JAK inhibitors and different pharmacokinetic properties for each drug, it was sought to test each drug at a relevant range of physiological concentrations based on clinical dosing and reported pharmacokinetic data from repeat dose studies. Reported Cmax values in patient sera were converted to in vitro concentrations and adjusted for reported plasma protein binding.

[2] = system: NALM6.GFP.LUC.CD19 target cells; test: Serial killing assay; assay type: cell-based, human
Protocol: CD19 CAR-T cells were thawed in RPMI media supplemented with HEPES, Penicillin/Streptomycin/L-Glutamine and 10% FBS and rested overnight. The following day, drugs were serially diluted and prepared in 96-well plates. Rested T cells were counted and normalized so that 25,000 or 8,333 T cells were plated with 25,000 NALM6.GFP.LUC.CD19 target cells (1:1 or 1:3 Effector:Target ratio) in the prepared 96-well plates. At 16 hour post-incubation and every 3-4 days, T cell killing of targets was measured via luciferase detection. D-luciferin substrate was added to the co-culture wells at a final concentration of 0.14 mg/mL and plates were incubated at 37° C. in the dark for 10 minutes. Luminescent signal was read immediately after in a VarioSkan™ LUX microplate reader. T cell-mediated cytotoxicity was calculated as follows: % Cytotoxicity=[1−luciferase signal of (sample of interest/target alone control)]*100. Afterwards, co-cultures were stained with LIVE/DEAD and antibodies against CD4, CD8 and KIP-1 and then washed. Cells were then analyzed and quantified via the Attune NxT flow cytometer. T cells were then repeatedly stimulated with fresh 25,000 target cells, and this process was repeated every 3-4 days.

[3] = system: phospho-STAT-1, -3 and -5 in purified CD14+ monocytes; test: Intracellular phospho-STAT-1, -3, -5 by BD PhosphoFlow in purified monocytes; assay type: cell-based, human; settings: for Monocyte-specific pSTAT1 signaling, inhibition / Monocyte-specific pSTAT3 signaling, inhibition / Monocyte-specific pSTAT5 signaling, inhibition: purified CD14+ monocytes
Protocol: Further experiments were performed to look at impacts of JAK inhibitors on STAT phosphorylation in various immune cell subsets.

[4] = cited from earlier work
CAR-T cells = test: CAR-T cell expansion assay (KIP-1 or CD3/CD28 stimulation)
CD19 CAR T cells = test: CAR T cell cytokine production (Luminex) under CD19 K562, KIP-1 or CD2/3/28 stimulation
[5] = E:T ratio 1:3, all doses tested
[6] = CAR T cell-derived supernatant, 30 min
[7] = purified monocytes, CAR T derived cytokines/supernatant stimulation, 30 min

## Nc1nc2cccc(-c3ccc(CN4CCS(=O)(=O)CC4)cc3)n2n1 [GS-829845]
[1]
  clinically relevant dose level (in vitro concentration): ~4 µM
[2]; E:T ratio 1:1
  T-cell counts: increased T-cell counts in a dose-dependent manner
  serial killing: enhanced serial killing
[2]; [5]
  T-cell counts: no negative impacts were observed
  serial killing: no negative impacts
[3]; [6]
  Monocyte-specific pSTAT1 signaling, inhibition: 32%
  Monocyte-specific pSTAT3 signaling, inhibition: 80%
  Monocyte-specific pSTAT5 signaling, inhibition: 3%
[3]; rh-GM-CSF-induced
  Monocyte-specific pSTAT1 signaling, inhibition: na/ni
  Monocyte-specific pSTAT3 signaling, inhibition: na/ni
  Monocyte-specific pSTAT5 signaling, inhibition: 0%
[3]; rhIFNg-induced
  Monocyte-specific pSTAT1 signaling, inhibition: 61%
  Monocyte-specific pSTAT3 signaling, inhibition: 100%
  Monocyte-specific pSTAT5 signaling, inhibition: 100%
[3]; rhIL6-induced
  Monocyte-specific pSTAT1 signaling, inhibition: na/ni
  Monocyte-specific pSTAT3 signaling, inhibition: 33%
  Monocyte-specific pSTAT5 signaling, inhibition: na/ni
[3]; [7]
  pSTAT1 inhibition: 32%
  pSTAT3 inhibition: 80%
[4]; clinical dosing, patient sera, repeat dose studies
  Cmax: 3540 ng/mL
[4]; plasma protein binding, reported
  Protein binding: ~58%
CAR-T cells; CD3/CD28, dose 1000 nM, day 0
  % viability: 75%
CAR-T cells; CD3/CD28, dose 1000 nM, day 4
  % viability: 55.6%
CAR-T cells; CD3/CD28, dose 1000 nM, day 8
  % viability: 76.2%
CAR-T cells; CD3/CD28, dose 1000 nM, day 12
  % viability: 88.9%
CAR-T cells; CD3/CD28, dose 5000 nM, day 0
  % viability: 75%
CAR-T cells; CD3/CD28, dose 5000 nM, day 4
  % viability: 56.5%
CAR-T cells; CD3/CD28, dose 5000 nM, day 8
  % viability: 75.6%
CAR-T cells; CD3/CD28, dose 5000 nM, day 12
  % viability: 88.8%
CAR-T cells; KIP-1, dose 1000 nM, day 0
  % viability: 75%
CAR-T cells; KIP-1, dose 1000 nM, day 4
  % viability: 48.4%
CAR-T cells; KIP-1, dose 1000 nM, day 8
  % viability: 63%
CAR-T cells; KIP-1, dose 1000 nM, day 12
  % viability: 82.5%
CAR-T cells; KIP-1, dose 5000 nM, day 0
  % viability: 75%
CAR-T cells; KIP-1, dose 5000 nM, day 4
  % viability: 60%
CAR-T cells; KIP-1, dose 5000 nM, day 8
  % viability: 87%
CAR-T cells; KIP-1, dose 5000 nM, day 12
  % viability: 81.1%
CAR-T cells; at the doses tested (Table 40)
  effect on T cell expansion: little to no effect
CD19 CAR T cells
  suppression of cytokine production from CAR T cells (breadth and magnitude): weaker in activity compared to filgotinib and other JAK inhibitors
CD19 CAR T cells; CD3/CD28 stimulation, 72 h
  Suppression of cytokine production, IL-6 (IC50): Suppress
  Suppression of cytokine production, MCP-1 (IC50): Suppress
  Suppression of cytokine production, TNFa (IC50): Suppress
CD19 CAR T cells; K562-CD19 stimulation, 72 h
  Suppression of cytokine production, IL-6 (IC50): Suppress
  Suppression of cytokine production, MCP-1 (IC50): Suppress
  Suppression of cytokine production, MIG (IC50): Suppress
  Suppression of cytokine production, TNFa (IC50): Suppress
CD19 CAR T cells; KIP-1 stimulation, 72 h
  Suppression of cytokine production, IL-6 (IC50): Suppress
  Suppression of cytokine production, MCP-1 (IC50): Suppress
  Suppression of cytokine production, TNFa (IC50): Suppress
CD19 CAR T cells; read-out: Suppression of cytokine production, GMCSF (IC50), CD3/CD28 stimulation, 72 h
  IC50: > 10 µM
CD19 CAR T cells; read-out: Suppression of cytokine production, GMCSF (IC50), K562-CD19 stimulation, 72 h
  IC50: > 10 µM
CD19 CAR T cells; read-out: Suppression of cytokine production, GMCSF (IC50), KIP-1 stimulation, 72 h
  IC50: > 10 µM
CD19 CAR T cells; read-out: Suppression of cytokine production, GzB (IC50), CD3/CD28 stimulation, 72 h
  IC50: > 10 µM
CD19 CAR T cells; read-out: Suppression of cytokine production, GzB (IC50), K562-CD19 stimulation, 72 h
  IC50: > 10 µM
CD19 CAR T cells; read-out: Suppression of cytokine production, GzB (IC50), KIP-1 stimulation, 72 h
  IC50: > 10 µM
CD19 CAR T cells; read-out: Suppression of cytokine production, IFNg (IC50), CD3/CD28 stimulation, 72 h
  IC50: > 10 µM
CD19 CAR T cells; read-out: Suppression of cytokine production, IFNg (IC50), K562-CD19 stimulation, 72 h
  IC50: > 10 µM
CD19 CAR T cells; read-out: Suppression of cytokine production, IFNg (IC50), KIP-1 stimulation, 72 h
  IC50: > 10 µM
CD19 CAR T cells; read-out: Suppression of cytokine production, IL-2Ra (IC50), CD3/CD28 stimulation, 72 h
  IC50: 4.74 µM
CD19 CAR T cells; read-out: Suppression of cytokine production, IL-2Ra (IC50), K562-CD19 stimulation, 72 h
  IC50: > 10 µM
CD19 CAR T cells; read-out: Suppression of cytokine production, IL-2Ra (IC50), KIP-1 stimulation, 72 h
  IC50: > 10 µM
CD19 CAR T cells; read-out: Suppression of cytokine production, IL-8 (IC50), CD3/CD28 stimulation, 72 h
  IC50: > 10 µM
CD19 CAR T cells; read-out: Suppression of cytokine production, IL-8 (IC50), K562-CD19 stimulation, 72 h
  IC50: > 10 µM
CD19 CAR T cells; read-out: Suppression of cytokine production, IL-8 (IC50), KIP-1 stimulation, 72 h
  IC50: > 10 µM
CD19 CAR T cells; read-out: Suppression of cytokine production, IL-10 (IC50), K562-CD19 stimulation, 72 h
  IC50: 4.01 µM
CD19 CAR T cells; read-out: Suppression of cytokine production, IL-10 (IC50), KIP-1 stimulation, 72 h
  IC50: 3.93 µM
CD19 CAR T cells; read-out: Suppression of cytokine production, MIG (IC50), CD3/CD28 stimulation, 72 h
  IC50: > 10 µM
CD19 CAR T cells; read-out: Suppression of cytokine production, MIG (IC50), KIP-1 stimulation, 72 h
  IC50: > 10 µM
CD19 CAR T cells; read-out: Suppression of cytokine production, MIP-1a (IC50), CD3/CD28 stimulation, 72 h
  IC50: > 10 µM
CD19 CAR T cells; read-out: Suppression of cytokine production, MIP-1a (IC50), K562-CD19 stimulation, 72 h
  IC50: > 10 µM
CD19 CAR T cells; read-out: Suppression of cytokine production, MIP-1a (IC50), KIP-1 stimulation, 72 h
  IC50: > 10 µM
CD19 CAR T cells; read-out: Suppression of cytokine production, MIP-1b (IC50), CD3/CD28 stimulation, 72 h
  IC50: > 10 µM
CD19 CAR T cells; read-out: Suppression of cytokine production, MIP-1b (IC50), K562-CD19 stimulation, 72 h
  IC50: > 10 µM
CD19 CAR T cells; read-out: Suppression of cytokine production, MIP-1b (IC50), KIP-1 stimulation, 72 h
  IC50: > 10 µM
CD19 CAR T cells; read-out: Suppression of cytokine production, Perforin (IC50), CD3/CD28 stimulation, 72 h
  IC50: > 10 µM
CD19 CAR T cells; read-out: Suppression of cytokine production, Perforin (IC50), K562-CD19 stimulation, 72 h
  IC50: > 10 µM
CD19 CAR T cells; read-out: Suppression of cytokine production, Perforin (IC50), KIP-1 stimulation, 72 h
  IC50: > 10 µM
